Drawing on patent US20260174875A1 (Novo Nordisk A/S, priority 2023, published 2026), this text covers EC50 for 17 substances.

Common to all, as to assay type: cell-based
Assay [1] has as its target T1, human GIP receptor (hGIPR) (Homo sapiens, UniProt P48546).
T1 construct: expressed in transfected cells
T1 sequence (P48546 22-466): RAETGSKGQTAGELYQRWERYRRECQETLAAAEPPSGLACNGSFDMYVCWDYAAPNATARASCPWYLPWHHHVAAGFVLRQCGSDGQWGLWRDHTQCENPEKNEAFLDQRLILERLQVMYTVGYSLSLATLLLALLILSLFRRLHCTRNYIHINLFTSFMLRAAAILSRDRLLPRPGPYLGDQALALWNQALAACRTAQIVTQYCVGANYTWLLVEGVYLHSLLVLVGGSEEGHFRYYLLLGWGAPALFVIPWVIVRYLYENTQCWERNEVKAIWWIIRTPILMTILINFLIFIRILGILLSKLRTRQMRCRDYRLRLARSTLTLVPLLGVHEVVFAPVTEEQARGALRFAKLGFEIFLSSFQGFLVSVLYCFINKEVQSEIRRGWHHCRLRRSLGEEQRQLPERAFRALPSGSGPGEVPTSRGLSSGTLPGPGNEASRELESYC
As to the kind of experiment: GIP receptor assay, method A (CRE-luciferase reporter, BHK cells). The essentials: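 BHK cells co-expressing hGIPR and a CRE-luciferase reporter, plated 21-23 h before assay, stimulated 3 h at 37 °C with compounds (7-point 10-fold titration, duplicates) in ovalbumin-containing DMEM buffer with or without 1% HSA final. Luminescence read; EC50 (pM) from four-parameter logistic fit with shared Hill slope.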
In general terms: In a reporter assay the amount or activity of a reporter protein is the signal.

Assay [2] deals with T2, human GLP-1 receptor (hGLP-1R) (Homo sapiens, UniProt P43220).
T2 construct: expressed in transfected cells
T2 sequence (P43220 24-463): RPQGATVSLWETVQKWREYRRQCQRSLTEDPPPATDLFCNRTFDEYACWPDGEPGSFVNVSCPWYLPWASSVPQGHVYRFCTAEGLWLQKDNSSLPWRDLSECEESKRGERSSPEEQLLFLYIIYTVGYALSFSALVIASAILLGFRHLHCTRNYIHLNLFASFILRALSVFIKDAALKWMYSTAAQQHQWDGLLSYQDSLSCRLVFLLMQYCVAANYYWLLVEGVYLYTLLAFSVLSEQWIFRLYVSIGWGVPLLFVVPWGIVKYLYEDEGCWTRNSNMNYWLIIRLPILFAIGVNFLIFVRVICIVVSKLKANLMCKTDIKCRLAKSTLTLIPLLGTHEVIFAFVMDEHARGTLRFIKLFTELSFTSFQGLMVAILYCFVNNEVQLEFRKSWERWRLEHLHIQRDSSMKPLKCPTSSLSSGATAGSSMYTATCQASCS
The assay can be described thus: GLP-1 receptor assay, method A (CRE-luciferase reporter, BHK cells). In short, it runs like this:
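Albumin sensitivity is tested by running the assay both without HSA and with 1% (w/v) HSA. Frozen BHK cells carrying hGLP-1R and CRE-driven luciferase are incubated with compound for 3 hours at 37° C. Luminescence is then read with steadylite Plus.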

Assay [3] has as its target T3, human amylin receptor (hAMYR3) (Homo sapiens, UniProt O60896+P30988).
T3 construct: host or cells: BHK cells (Hollex-1 line expressing hCTR(a) and CRE-Luc), further transfected with human RAMP3
The assay can be described thus: Amylin receptor assay, method A (CRE-luciferase reporter, BHK cells).

Where [4] appears, read: hGIPR Potency, 1% HSA, EC50, method A, in the presence of 1% HSA.
Where [5] appears, read: method A, absence of HSA, read-out: hGIPR Potency, no HSA, EC50.
[6] abbreviates: hGLP-1R Potency, 1% HSA, EC50, method A, in the presence of 1% HSA.
[7] abbreviates: method A, absence of HSA, read-out: hGLP-1R Potency, no HSA, EC50.
Setting [8] is: hAMYR3 Potency, 1% HSA, EC50, method A, in the presence of 1% HSA.
The mark [9] stands for this setting: method A, absence of HSA, read-out: hAMYR3 Potency, no HSA, EC50.

Read-outs that look alike come from different tables or passages of the source. Numbered stars: 1 amine (or outer) side, 2 acyl side, 3 side chain; on linkers, the order of the positions; unused ones are H or OH. Square brackets hold non-standard residues; d marks the D form. Side chains are listed from the residue outwards. * marks the point of attachment. C20 diacid = O=C(O)CCCCCCCCCCCCCCCCCCC(=O)*; C18 diacid = O=C(O)CCCCCCCCCCCCCCCCC(=O)*; γGlu = O=C(O)[C@H](CCC(=O)[*:2])N[*:1]; AEEA = NCCOCCOCC(=O)O; Aib = CC(C)(N)C(=O)O

T3 sequence (P30988 25-474): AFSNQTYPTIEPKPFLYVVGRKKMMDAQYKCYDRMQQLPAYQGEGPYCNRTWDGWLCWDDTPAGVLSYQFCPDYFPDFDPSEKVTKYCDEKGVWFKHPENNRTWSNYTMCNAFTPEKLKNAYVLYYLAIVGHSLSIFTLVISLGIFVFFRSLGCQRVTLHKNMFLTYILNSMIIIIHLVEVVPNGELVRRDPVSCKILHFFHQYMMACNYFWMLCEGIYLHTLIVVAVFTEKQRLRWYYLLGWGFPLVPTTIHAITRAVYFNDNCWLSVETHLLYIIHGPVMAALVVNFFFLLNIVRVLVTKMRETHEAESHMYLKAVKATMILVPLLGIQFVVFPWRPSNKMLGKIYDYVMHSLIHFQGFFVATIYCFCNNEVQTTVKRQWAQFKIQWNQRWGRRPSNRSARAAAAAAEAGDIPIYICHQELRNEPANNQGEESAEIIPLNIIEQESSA
T3 sequence (O60896 24-148): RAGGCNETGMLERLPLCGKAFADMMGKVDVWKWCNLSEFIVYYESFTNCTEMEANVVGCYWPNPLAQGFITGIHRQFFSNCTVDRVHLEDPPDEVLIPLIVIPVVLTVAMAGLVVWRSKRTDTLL

For “Y[Aib]EGTFTSDYSILLEEQAAREFIEWLLAGGPSK([AEEA-AEEA-γGlu-C18 diacid])GEASELSTAALGRLSAELHELATLPRTETGSGSP-NH2 [Compound 26]”, the EC50 (as a rule, the midpoint of the concentration-response curve) in assay [1] (setting [4]) worked out at 0.558 nM; in assay [1] (setting [5]), 0.00175 nM; in assay [2] (setting [6]) it was 1.68 nM; in assay [2] (setting [7]), 0.0207 nM; in assay [3] (setting [8]), 0.349 nM; in assay [3] (setting [9]), 0.0118 nM.

With “Y[Aib]EGTFTSDYSILLEEQAAREFIEWLLAGGPSK([AEEA-AEEA-γGlu-C18 diacid])GEASHLSTAQTARLSAELHELATLPRTETGSGSP-NH2 [Compound 35]”, the EC50 in assay [1] (setting [5]) was 0.00197 nM; in assay [2] (setting [7]), 0.0233 nM; in assay [3] (setting [9]), 0.00421 nM.

Regarding “Y[Aib]EGTFTSDYSILLEEQAAREFIEWLLAGGPSK([AEEA-AEEA-γGlu-C18 diacid])GGQAPGQAPGEASHLSTAQTQRLSAELHELATLPRTETGSGSP-NH2 [Compound 38]”, the EC50 in assay [1] (setting [4]) was 0.336 nM; in assay [1] (setting [5]), 0.00137 nM; in assay [2] (setting [6]), 2.35 nM; in assay [2] (setting [7]) it was 0.012 nM; in assay [3] (setting [8]), 0.172 nM; in assay [3] (setting [9]), 0.00363 nM.

Turning to “Y[Aib]EGTFTSDYSILLEEQAAREFIEWLLAGGPSRGEASHLSTAQTQRLSAELHK([AEEA-AEEA-γGlu-C18 diacid])LATLPRTETGSGSP-NH2 [compound 68]”, the concentration for a half-maximal effect (EC50) in assay [1] (setting [4]) was found to be 0.0119 nM; in assay [1] (setting [5]) it was 0.00183 nM; in assay [2] (setting [6]), 0.0519 nM; in assay [2] (setting [7]), 0.0121 nM; in assay [3] (setting [8]), 0.23 nM; in assay [3] (setting [9]), 0.00257 nM.

Consider “Y[Aib]EGTFTSDYSILLEEQAAREFIEWLLAGGPSSGAGQAPGASHLSTAQTQRLSAELHK([AEEA-AEEA-γGlu-C18 diacid])LATLPRTETGSGSP-NH2 [Compound 97]”, for which the concentration for a half-maximal effect (EC50) in assay [1] (setting [4]) is 0.00838 nM; in assay [1] (setting [5]), 0.0023 nM; in assay [2] (setting [6]), 0.109 nM; in assay [2] (setting [7]) it was 0.0161 nM; in assay [3] (setting [8]), 0.132 nM; in assay [3] (setting [9]), 0.00281 nM.

For the substance “Y[Aib]EGTFTSDYSILLEEQAAREFIEWLLAGGPSSGAGQAPGQAPGASHLSTAALGRLSAELHK([AEEA-AEEA-γGlu-C18 diacid])LATLPRTETGSGSP-NH2 [Compound 53]”, the 50% effective concentration (EC50) came out at 0.0146 nM in assay [1] (setting [4]); 0.00325 nM in assay [1] (setting [5]); 0.0792 nM in assay [2] (setting [6]); 0.0233 nM in assay [2] (setting [7]); 0.0759 nM in assay [3] (setting [8]); 0.00322 nM in assay [3] (setting [9]).

Take “Y[Aib]EGTFTSDYSILLEEQAAREFIEWLLAGGPSSGAGQAPGQAPGASHLSTAQTQRLSAELHK([AEEA-AEEA-γGlu-C18 diacid])LATLPRTETGSGSP-NH2 [compound 52]”: the 50% effective concentration (EC50) came to 0.00679 nM in assay [1] (setting [4]); 0.00183 nM in assay [1] (setting [5]); 0.0269 nM in assay [2] (setting [6]); 0.011 nM in assay [2] (setting [7]); 0.119 nM in assay [3] (setting [8]); 0.00285 nM in assay [3] (setting [9]).

On to “Y[Aib]EGTFTSDYSILLEEQAAREFIEWLLAGGPSSGAGQAPGQAPGASHLSTAQTQRLSAELHRLATLPK([AEEA-AEEA-γGlu-C18 diacid])TETGSGSP-NH2 [Compound 57]”, for which the EC50 in assay [1] (setting [4]) is 0.00585 nM; in assay [1] (setting [5]), 0.00198 nM; in assay [2] (setting [6]), 0.0296 nM; in assay [2] (setting [7]) it was 0.0128 nM; in assay [3] (setting [8]), 0.085 nM; in assay [3] (setting [9]), 0.003 nM.

In the case of “Y[Aib]EGTFTSDYSILLEEQAAREFIEWLLAGGPSSGAGQAPGQAPGASHLSTAQTQRLSAELHRLK([AEEA-AEEA-γGlu-C18 diacid])TLPRTETGSGSP-NH2 [Compound 56]”, the concentration giving a half-maximal response (EC50) in assay [1] (setting [4]) is 0.00848 nM; in assay [1] (setting [5]), 0.00265 nM; in assay [2] (setting [6]), 0.0584 nM; in assay [2] (setting [7]), 0.0182 nM; in assay [3] (setting [8]), 0.0449 nM; in assay [3] (setting [9]), 0.00236 nM.

For “Y[Aib]EGTFTSDYSILLEEQAAREFIEWLLAGGPSSGAGQAPGQAPGASHLSTAQTQRLSAK([AEEA-AEEA-γGlu-C18 diacid])LHRLATLPRTETGSGSP-NH2 [compound 55]”, the EC50 in assay [1] (setting [4]) was 0.0103 nM; in assay [1] (setting [5]) it was 0.003 nM; in assay [2] (setting [6]), 0.0453 nM; in assay [2] (setting [7]), 0.023 nM; in assay [3] (setting [8]), 0.034 nM; in assay [3] (setting [9]) it was 0.00222 nM.

Regarding “Y[Aib]EGTFTSDYSILLEEQAAREFIEWLLAGGPSSGAGQAPGQAPLASHLSTAQTQRLSAELHK([AEEA-AEEA-γGlu-C18 diacid])LATLPRTETGSGSP-NH2 [compound 58]”, the EC50 in assay [1] (setting [4]) is 0.00758 nM; in assay [1] (setting [5]), 0.00188 nM; in assay [2] (setting [6]), 0.0256 nM; in assay [2] (setting [7]), 0.0127 nM; in assay [3] (setting [8]) it was 0.134 nM; in assay [3] (setting [9]) it was 0.00291 nM.

For “Y[Aib]EGTFTSDYSILLEEQAAREFIEWLLAGGPSSGALQAPGQAPLASHLSTAQTQRLSAELHK([AEEA-AEEA-γGlu-C20 diacid])LATLPRTETGSGSP-NH2 [Compound 99]”, the EC50 came to 0.00741 nM in assay [1] (setting [4]); 0.00209 nM in assay [1] (setting [5]); 0.0362 nM in assay [2] (setting [6]); 0.0167 nM in assay [2] (setting [7]); 0.129 nM in assay [3] (setting [8]); 0.00282 nM in assay [3] (setting [9]).

With “Y[Aib]EGTFTSDYSILLEEQAAREFIEWLLAGGPSSGAPPPSGGGEASHLSTAQTQRLSAK([AEEA-AEEA-γGlu-C18 diacid])LHRLATLPRTETGSGSP-NH2 [Compound 109]”, the concentration for a half-maximal effect (EC50) amounted to 0.0174 nM in assay [1] (setting [4]); 0.00742 nM in assay [1] (setting [5]); 0.0947 nM in assay [2] (setting [6]); 0.0689 nM in assay [2] (setting [7]); 0.032 nM in assay [3] (setting [8]); 0.00365 nM in assay [3] (setting [9]).

As for “Y[Aib]EGTFTSDYSILLEEQAAREFIEWLLAGGPSSGAPPPSGGGEASHLSTAQTQRLSAK([AEEA-AEEA-γGlu-C20 diacid])LHRLATLPRTETGSGSP-NH2 [Compound 110]”, the EC50 in assay [1] (setting [4]) was determined as 0.0293 nM; in assay [1] (setting [5]), 0.00801 nM; in assay [2] (setting [6]), 0.169 nM; in assay [2] (setting [7]), 0.107 nM; in assay [3] (setting [8]), 0.094 nM; in assay [3] (setting [9]) it was 0.00327 nM.

“Y[Aib]EGTFTSDYSILLEEQAAREFIEWLLAGGPSSGEASHLSTAQTQRLSAELHK([AEEA-AEEA-γGlu-C18 diacid])LATLPRTETGSGSP-NH2 [Compound 50]”: the concentration giving a half-maximal response (EC50) in assay [1] (setting [4]) was 0.0151 nM; in assay [1] (setting [5]) it was 0.00236 nM; in assay [2] (setting [6]), 0.0663 nM; in assay [2] (setting [7]) it was 0.0162 nM; in assay [3] (setting [8]), 0.185 nM; in assay [3] (setting [9]), 0.0032 nM.

Regarding “Y[Aib]EGTFTSDYSILLEEQAAREFIEWLLAGGPSSGEASHLSTAQTQRLSAELHRLK([AEEA-AEEA-γGlu-C18 diacid])TLPRTETGSGSP-NH2 [Compound 80]”, the EC50 in assay [1] (setting [4]) was found to be 0.0203 nM; in assay [1] (setting [5]), 0.00401 nM; in assay [2] (setting [6]), 0.111 nM; in assay [2] (setting [7]), 0.0248 nM; in assay [3] (setting [8]), 0.0624 nM; in assay [3] (setting [9]), 0.00323 nM.

For “Y[Aib]EGTFTSDYSILLEEQAAREFIEWLLAGGPSSGEASHLSTAQTQRLSAK([AEEA-AEEA-γGlu-C18 diacid])LHRLATLPRTETGSGSP-NH2 [Compound 79]”, the EC50 in assay [1] (setting [4]) stood at 0.0247 nM; in assay [1] (setting [5]), 0.0047 nM; in assay [2] (setting [6]), 0.168 nM; in assay [2] (setting [7]) it was 0.0387 nM; in assay [3] (setting [8]), 0.0534 nM; in assay [3] (setting [9]), 0.00353 nM.
